Patent US8076487B2, “Pyridone derivative and herbicide” (Kumiai Chemical Industry Co., Ltd., priority 2006, dated 2011)

How the values were obtained:
Assay type in all cases: in vivo
[1] = test system: Japanese bulrush (Scirpus juncoides Roxb.); experiment: Test Example 1: herbicidal effect by soil application to paddy field; settings: paddy field soil application; active ingredient 1,000 g per 1 hectare; wettable powder added dropwise to water surface the day after sowing; examined on the 21st day after application
How it was run: (§1)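 Under greenhouse conditions, seeds sown on puddled paddy soil in 100 cm2 pots under 3 cm of standing water received the test compound; injury was assessed with a standard scoring scheme three weeks (day 21) after treatment.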

[2] = test system: early watergrass (Echinochloa oryzicola Vasing); experiment: as above; settings: paddy field soil application; active ingredient 1,000 g per 1 hectare; wettable powder added dropwise to water surface the day after sowing; examined on the 21st day after application
How it was run: as §1

[3] = test system: heartshape false pickerelweed (Monochoria vaginalis (Burm.f.) C.Presl); experiment: as above; settings: paddy field soil application; active ingredient 1,000 g per 1 hectare; wettable powder added dropwise to water surface the day after sowing; examined on the 21st day after application
How it was run: as §1

[4] = test system: barnyardgrass (Echinochloa crus-galli (L.) P. Beauv. var. crus-galli); experiment: Test Example 2: herbicidal effect by soil application to upland field; settings: soil surface spray, upland field soil, 1,000 g active ingredient per hectare, 21st day after application
How it was run: (§2)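 A standard visual rating of herbicidal effect, made 21 days after treatment, gives the value. Treatment consisted of a uniform spray of water-diluted wettable powder on the soil covering newly sown seeds, equivalent to 1,000 g active ingredient and 1,000 liters per hectare.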

[5] = test system: green foxtail (Setaria viridis (L.) P. Beauv.); experiment: as above; settings: soil surface spray, upland field soil, 1,000 g active ingredient per hectare, 21st day after application
How it was run: as §2

[6] = test system: slender amaranth (Amaranthus viridis L.); experiment: as above; settings: soil surface spray, upland field soil, 1,000 g active ingredient per hectare, 21st day after application
How it was run: as §2

[7] = test system: velvetleaf (Abutilon theophrasti medicus); experiment: as above; settings: soil surface spray, upland field soil, 1,000 g active ingredient per hectare, 21st day after application
How it was run: as §2

[8] = test system: barnyardgrass (Echinochloa crus-galli (L.) P. Beauv. var. crus-galli); experiment: Test Example 3: herbicidal effect by application to upland field (foliage treatment); settings: 14th day after application; for herbicidal effect, Barnyardgrass: foliage treatment, 1,000 g active ingredient per 1 hectare, greenhouse; for herbicidal effect (index), Barnyardgrass: foliage treatment, plants grown two weeks, 1,000 g active ingredient per hectare
How it was run: (§3)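 Dose 1,000 g active ingredient/ha, sprayed as diluted wettable powder over entire plants two weeks after sowing in field soil. Kept in greenhouse; herbicidal effect graded on a standard scale on day 14.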

[9] = test system: green foxtail (Setaria viridis (L.) P. Beauv.); experiment: as above; settings: 14th day after application; for herbicidal effect, Green Foxtail: foliage treatment, 1,000 g active ingredient per 1 hectare, greenhouse; for herbicidal effect (index), Green Foxtail: foliage treatment, plants grown two weeks, 1,000 g active ingredient per hectare
How it was run: as §3

[10] = test system: slender amaranth (Amaranthus viridis L.); experiment: as above; settings: 14th day after application; for herbicidal effect, Slender Amaranth: foliage treatment, 1,000 g active ingredient per 1 hectare, greenhouse; for herbicidal effect (index), Slender Amaranth: foliage treatment, plants grown two weeks, 1,000 g active ingredient per hectare
How it was run: as §3

[11] = test system: velvetleaf (Abutilon theophrasti medicus); experiment: as above; settings: 14th day after application; for herbicidal effect, Velvetleaf: foliage treatment, 1,000 g active ingredient per 1 hectare, greenhouse; for herbicidal effect (index), Velvetleaf: foliage treatment, plants grown two weeks, 1,000 g active ingredient per hectare
How it was run: as §3

| Structure (SMILES) | herbicidal effect, Scirpus juncoides Roxb. [1] | herbicidal effect, Echinochloa oryzicola Vasing [2] | herbicidal effect, Monochoria vaginalis (Burm. f.) C. Presl [3] | herbicidal effect (index), Barnyardgrass [4] | herbicidal effect (index), Green Foxtail [5] | herbicidal effect (index), Slender Amaranth [6] | herbicidal effect (index), Velvetleaf [7] | herbicidal effect, Barnyardgrass [8] | herbicidal effect, Green Foxtail [9] | herbicidal effect, Slender Amaranth [10] | herbicidal effect, Velvetleaf [11] | herbicidal effect (index), Barnyardgrass [8] | herbicidal effect (index), Green Foxtail [9] | herbicidal effect (index), Slender Amaranth [10] | herbicidal effect (index), Velvetleaf [11] |
| --- | --- | --- | --- | --- | --- | --- | --- | --- | --- | --- | --- | --- | --- | --- | --- |
| C[S+]([O-])CCn1c(C(F)(F)F)ccc(C(=O)C2=C(O)C3CCC(C3)C2=O)c1=O (stereo not drawn) [III-29] | 5 (90% or more of herbicidal effect and crop phytotoxicity) | 5 (90% or more of herbicidal effect and crop phytotoxicity) | 5 (90% or more of herbicidal effect and crop phytotoxicity) | 5 (90% or more of herbicidal effect and crop phytotoxicity) | 5 (90% or more of herbicidal effect and crop phytotoxicity) | 5 (90% or more of herbicidal effect and crop phytotoxicity) | 5 (90% or more of herbicidal effect and crop phytotoxicity) | 5 (90% or more of herbicidal effect and crop phytotoxicity) | 5 (90% or more of herbicidal effect and crop phytotoxicity) | 5 (90% or more of herbicidal effect and crop phytotoxicity) | 5 (90% or more of herbicidal effect and crop phytotoxicity) |  |  |  |  |
| CCCSCn1c(C(F)(F)F)ccc(C(=O)C2=C(O)CCCC2=O)c1=O [I-50] | 5 (90% or more of herbicidal effect and crop phytotoxicity) | 5 (90% or more of herbicidal effect and crop phytotoxicity) | 5 (90% or more of herbicidal effect and crop phytotoxicity) | 5 (90% or more of herbicidal effect and crop phytotoxicity) | 5 (90% or more of herbicidal effect and crop phytotoxicity) | 5 (90% or more of herbicidal effect and crop phytotoxicity) | 5 (90% or more of herbicidal effect and crop phytotoxicity) |  |  |  |  | 5 (90% or more of herbicidal effect and crop phytotoxicity) | 3 (50 to less than 70% of herbicidal effect and crop phytotoxicity) | 5 (90% or more of herbicidal effect and crop phytotoxicity) | 5 (90% or more of herbicidal effect and crop phytotoxicity) |
| Cn1ncc(C(=O)c2ccc(C(F)(F)F)n(CCS(C)(=O)=O)c2=O)c1O [IV-54] | 4 (70 to less than 90% of herbicidal effect and crop phytotoxicity) | 5 (90% or more of herbicidal effect and crop phytotoxicity) | 4 (70 to less than 90% of herbicidal effect and crop phytotoxicity) | 5 (90% or more of herbicidal effect and crop phytotoxicity) | 5 (90% or more of herbicidal effect and crop phytotoxicity) | 5 (90% or more of herbicidal effect and crop phytotoxicity) | 5 (90% or more of herbicidal effect and crop phytotoxicity) | 5 (90% or more of herbicidal effect and crop phytotoxicity) | 5 (90% or more of herbicidal effect and crop phytotoxicity) | 5 (90% or more of herbicidal effect and crop phytotoxicity) | 5 (90% or more of herbicidal effect and crop phytotoxicity) |  |  |  |  |
| COCCOCCn1c(C(F)(F)F)ccc(C(=O)C2=C(O)CCCC2=O)c1=O [I-34] | 5 (90% or more of herbicidal effect and crop phytotoxicity) | 5 (90% or more of herbicidal effect and crop phytotoxicity) | 5 (90% or more of herbicidal effect and crop phytotoxicity) | 5 (90% or more of herbicidal effect and crop phytotoxicity) | 5 (90% or more of herbicidal effect and crop phytotoxicity) | 5 (90% or more of herbicidal effect and crop phytotoxicity) | 5 (90% or more of herbicidal effect and crop phytotoxicity) |  |  |  |  | 5 (90% or more of herbicidal effect and crop phytotoxicity) | 5 (90% or more of herbicidal effect and crop phytotoxicity) | 5 (90% or more of herbicidal effect and crop phytotoxicity) | 5 (90% or more of herbicidal effect and crop phytotoxicity) |
| COc1cncc(-n2c(C(F)(F)F)ccc(C(=O)C3=C(O)CCCC3=O)c2=O)c1 [I-151] | 5 (90% or more of herbicidal effect and crop phytotoxicity) | 5 (90% or more of herbicidal effect and crop phytotoxicity) | 5 (90% or more of herbicidal effect and crop phytotoxicity) | 5 (90% or more of herbicidal effect and crop phytotoxicity) | 5 (90% or more of herbicidal effect and crop phytotoxicity) | 5 (90% or more of herbicidal effect and crop phytotoxicity) | 5 (90% or more of herbicidal effect and crop phytotoxicity) | 5 (90% or more of herbicidal effect and crop phytotoxicity) | 5 (90% or more of herbicidal effect and crop phytotoxicity) | 5 (90% or more of herbicidal effect and crop phytotoxicity) | 5 (90% or more of herbicidal effect and crop phytotoxicity) |  |  |  |  |
| CCn1ncc(C(=O)c2ccc(C(F)(F)F)n(CC3CC(C)=NO3)c2=O)c1O (stereo not drawn) [IV-107] | 5 (90% or more of herbicidal effect and crop phytotoxicity) | 5 (90% or more of herbicidal effect and crop phytotoxicity) | 5 (90% or more of herbicidal effect and crop phytotoxicity) | 5 (90% or more of herbicidal effect and crop phytotoxicity) | 5 (90% or more of herbicidal effect and crop phytotoxicity) | 5 (90% or more of herbicidal effect and crop phytotoxicity) | 5 (90% or more of herbicidal effect and crop phytotoxicity) | 5 (90% or more of herbicidal effect and crop phytotoxicity) | 5 (90% or more of herbicidal effect and crop phytotoxicity) | 5 (90% or more of herbicidal effect and crop phytotoxicity) | 5 (90% or more of herbicidal effect and crop phytotoxicity) |  |  |  |  |
